The values below come from US20230086718A1, “METHOD FOR PREDICTING THE SURVIVAL TIME OF A PATIENT SUFFERING FROM A CANCER” (INSERM (INSTITUT NATIONAL DE LA SANTÉ ET DE LA RECHERCHE …, priority 2020, published 2023).

Assay type in all cases: cell-based, human
Experiment [1] deals with Vδ1 T cells. The experiment in a line: Adenosine measurement by MALDI TOF spectrometry in supernatants of amplified Vδ1 T cells. The procedure:
Amplified Vδ1 T cells (2.106 cells/mL) were washed in cold PBS and resuspended in PBS supplemented with 50 mM AMP (Sigma) at 4° C. for 30 min. After centrifugation, adenosine levels in supernatants were analyzed by MALDI-TOF mass spectrometry, as previously described by Bastid et al..

The test system of experiment [2] is Vδ1 T cells. The experiment in a line: Flow cytometry of CD39, CD73 and PD-L1 expression in expanded Vδ1 T cells. The source says: Peripheral Blood Mononuclear Cells (PBMCs) were obtained by density centrifugation on Ficoll-Paque (Eurobio, Les Ulis, France) of blood samples from healthy donors and breast cancer patients. Healthy donor samples were provided by the Etablissement Français du Sang (Convention EFS-OCPM no 21PLER2018-0069) and the blood of patients was provided by the ICM (BCB-EC-1-FR-ICM-ENR-269-004-CRB). […] Vδ1 T cells were isolated from PBMCs by a positive immunoselection using the anti-human Vδ1 antibody (Beckman Coulter) and anti-IgG1 magnetic beads (Miltenyi Biotec). Briefly, 300.106 cells were incubated with 10 μg of anti-human Vδ1 antibody in 5 ml of PBS supplemented with 2% SVF and EDTA (2 mM) for 1 hour at 4° C., then washed and incubated with 200 μl of anti-IgG1 magnetic beads for 1 hour at 4° C., then washed and collected on column according to the manufacturer's instructions (Miltenyi Biotec). Reproducible high purity of Vδ1 T cells (>90%) was obtained with this protocol. Purified Vδ1 T cells (2.106 cells/ml) were stimulated with 2 μg/mL of PHA in the presence of syngeneic macrophages isolated using their adherence properties. Briefly, PBMC (2.106/ml) were incubated in RPMI 10% FCS for 1 hour at 37° C. in 96 well-plates to allow to monocytes to adhere and differentiate in macrophages. Non-adherent cells were removed by 2 washes with RPMI medium. Purified Vδ1 T cells were added to macrophages, activated by PHA and expanded in the complete medium containing RPMI 1640/Glutamax medium supplemented with 5% human AB serum and 5% fetal calf serum (FCS) in the presence of rhIL-2 (control) or rhIL-2+rhIL-21 (experimental condition) at 37° C. in humidified atmosphere with 5% CO2. Every 2 days, fresh medium is added and after 1 week Vδ1 T cells were separated from adherent macrophages and amplified in the complete medium with cytokines for 2 more weeks before phenotyping and analysis.
Cells were first incubated at 4° C. for 30 min with Fc-block solution to minimize non-specific binding of antibodies to Fc receptors, then incubated with a dye cell viability and the panel of antibodies in the staining buffer (PBS-2% FCS) at 4° C. for 30 min, cells were then washed and fixed in 1% paraformaldehyde. Data were acquired with a Cytoflex cytometer (Beckman-Coulter) and analyzed with the FlowJo software.
Peripheral Blood Mononuclear Cells (PBMCs) were obtained by density centrifugation on Ficoll-Paque (Eurobio, Les Ulis, France) of blood samples from healthy donors and breast cancer patients. Healthy donor samples were provided by the Etablissement Français du Sang and the blood of patients was provided by the Institut regional du Cancer de Montpellier (ICM). […] Vδ1 T cells were isolated from PBMCs by a positive immunoselection using the anti-human Vδ1 antibody (Beckman Coulter) and anti-IgG1 magnetic beads (Miltenyi Biotec). Briefly, 300.106 cells were incubated with 10 μg of anti-human Vδ1 antibody in 5 ml of PBS supplemented with 2% SVF and EDTA (2 mM) for 1 hour at 4° C., then washed and incubated with 200 μl of anti-IgG1 magnetic beads for 1 hour at 4° C., then washed and collected on column according to the manufacturer's instructions (Miltenyi Biotec). Reproducible high purity of Vδ1 T cells (>90%) was obtained with this protocol. Purified Vδ1 T cells (2.106 cells/ml) were stimulated with 2 μg/mL of PHA in the presence of syngeneic macrophages isolated using their adherence properties. […]
In general terms: Flow cytometry measures light scatter and fluorescence of single cells or particles in a stream.

Experiment [3] deals with Vδ1 T cells. The experiment in a line: ELISA of IL-10, IL-8 and TGF-β in supernatants of expanded Vδ1 T cells. An excerpt: Phytohemagglutinin (PHA) was purchased from Thermofisher Scientific. The anti-human CD3 (UCHT1), and the anti-human TCR γδ and TCR Vδ1 antibodies were purchased from Beckman Coulter (Brea, Calif., USA). Anti-human CD3, CD73, CD39 and their isotypically matched control mouse antibodies were from BD Biosciences (San Jose, Calif., USA). The anti-human TCR γδ antibody used for IHC was from Santa Cruz Biotechnology (USA). Recombinant human IL-2 (rhIL-2) was from Novartis Pharma (Rueil-Malmaison, France), and recombinant IL-21 (rhIL-21) was from Miltenyi Biotec (Paris, France). ELISA kits for detecting human IL-10 and IL-8 were from BD Biosciences (San Jose, Calif., USA). ELISA kit for the detection of human TGFβ was from RD system.
Expanded Vδ1 T cells (2.106 cells/mL) were incubated in fresh medium without cytokines in wells coated or not with the anti-CD3 antibody (UCHT1) for 6 h, and then supernatants were collected. IL-8 and IL-10 protein levels were assessed using the relevant BD Biosciences Opteia Kits. The mean values of duplicate samples from the same experiment are shown for each data point with their standard error of the mean (SEM).
In general terms: An ELISA detects its analyte on a solid surface through an enzyme-linked reagent.

`Nc1ncnc2c1ncn2[C@@H]1O[C@H](COP(=O)([O-])CP(=O)(O)O)[C@@H](O)[C@H]1O.[Na+]` [APCP, adenosine 5′-(α,β-methylene)-diphosphate sodium salt, reference compound]: the “adenosine production by control and IL-21-amplified Vδ1 T cells” value in the experiment with Vδ1 T cells [1] (in the presence of the CD73 inhibitor) is listed as “strongly impaired”.
For “rhIL-21: recombinant IL-21 (rhIL-21) from Miltenyi Biotec, cytokine added with rhIL-2 to expand Vδ1 T cells”, the “percentage of CD39-positive cells” value in the experiment with Vδ1 T cells [2] (Vδ1 T cells from healthy donors expanded with rhIL-2+rhIL-21 vs rhIL-2 only (control)) is “did not modify”. The “fraction of Vδ1 T cells expressing PD-L1” value in the experiment on Vδ1 T cells [2] (cells exposed to rhIL-21, about 50% in the control condition) worked out at 65%. Further, in the experiment on Vδ1 T cells [2] (expanded with rhIL-2+rhIL-21, vs 18% in control cells), the “fraction of CD39/CD73-positive Vδ1 T cells” value is 40%. For the same compound, the “fraction of CD73-positive Vδ1 T cells” value in the experiment with Vδ1 T cells [2] (expanded with rhIL-2+rhIL-21, vs 20% in the control condition (rhIL-2 only)) amounted to 50%. Also, the “percentage of PD-L1+ in CD73-positive Vδ1 T cells” value with Vδ1 T cells [2] (exposure to rhIL-21 vs control, around 60%) is listed as “did not modify”. Further, the “IL-10 production after TCR/CD3 activation” value in the experiment on Vδ1 T cells [3] (IL-21-amplified CD73+ Vδ1 T cells, not in the CD73− cells) is reported as “strongly increased”. For the same compound, the “IL-10 in supernatants, absence of activation” value in the experiment with Vδ1 T cells [3] (IL-21-amplified Vδ1 T cells, CD73+ or CD73−, not detected in control cells) is reported as “basal level”. In addition, the IL-8 production result in the experiment with Vδ1 T cells [3] (activated IL-21-amplified CD73+ Vδ1 T cells only) is listed as “highly present”. Further, the TGF-β secretion result in the experiment with Vδ1 T cells [3] (any of the tested conditions) is recorded as “did not detect”. The “adenosine generated in the presence of AMP” value with Vδ1 T cells [1] (IL-21-amplified Vδ1 T cells, control cells (only rhIL-2) ~0.4 μM) was approximately 1.4 µM.
